Reference: patent publication US20050014765A1, “Aryl-heteroaromatic products, compositions comprising them and use” (Aventis Pharma S.A., priority 2003, published 2005)

Columns and labels:
[1] = system: HCT116 cells; experiment: Inhibition of proliferation of the HCT116 human colon tumor line ([14C]-thymidine incorporation); assay type: cell-based; settings: HCT-116, 48 hours incubation at 37° C., read-out: Inhibition of HCT116 proliferation IC 50
Method: Test for Determining the Inhibition of Proliferation of the HCT116 Human Colon Tumor Line
The proliferation of HCT116 cells is evaluated by mesuring the incorporation of [^14C]-thymidine in the following way. The HCT166 cells (from the ATCC) are cultured in a DMEM medium (Gibco) which contains 10% of fetal calf serum and antibiotics (1% penicillin, 1% streptomycin). To perform the proliferation test, the cells are seeded into 96-well cytostar microplates (Amersham) at the rate of 5000 cells per well. The [^14C]-thymidine (0.1 μCi/well) and the products to be evaluated are subsequently added. Variable concentrations of products up to 10 μM are used; the DMSO (solvent used to dissolve the products) should not exceed 0.5% in the medium. 48 hours after incubation at 37° C., the radioactivity incorporated into the cells is measured by counting the plate in a Tri-Lux counter (Wallac). The IC50 is defined as the concentration of product which reduces the radioactivity by 50% compared with an untreated control. A product with an IC50 of less than 10 μm is regarded as cytotoxic.

[2] = molecular target: T1, Tubulin purified from pig brains (Sus scrofa, UniProt P02550+P02554); experiment: Assessment of the inhibition of tubulin polymerization (turbidimetry at 350 nm); assay type: biochemical; settings: concentration which inhibits the rate of polymerization by 50%; tubulin 1 mg/ml, 37° C.; read-out: Inhibition of tubulin polymerization IC 50
T1 construct: Tubulin is purified from pig brains according to published methods; from tissue; host or cells: pig brain
Method: Assessment of the Inhibition of Tubulin Polymerization
Tubulin is purified from pig brains according to published methods (Shelanski et al., 1973, Proc. Natl. Acad. Sci. USA, 70, 765-768. Weingarten et al., 1975, Proc. Natl. Acad. Sci. USA, 72, 1858-1862). Briefly, the brains are ground and centrifuged in an extraction buffer. The tubulin, present in the extract supernatant is subjected to two successive cycles of polymerization at 37° C. and depolymerization at 4° C., before being separated from the MAPs (Microtubule Associated Proteins) by chromatography on a phosphocellulose P11 column (Whatman). The tubulin thus isolated is more than 95% pure. It is stored in a buffer known as RB/2 30% glycerol, the composition of which is 50 mM MES-NaOH [2-(N-morpholino)ethanesulfonic acid], pH 6.8; 0.25 mM MgCl2; 0.5 mM EGTA; 30% (v/v) glycerol, 0.2 mM GTP (guanosine 5′-triphosphate).
The polymerization of the tubulin into microtubules is monitored by turbidimetry as follows: the tubulin is adjusted to a concentration of 10 μm (1 mg/ml) in the RB/2 30% glycerol buffer, to which are added 1 mM GTP and 6 mM MgCl2. The polymerization is initiated by increasing the temperature from 6° C. to 37° C. in a cuvette with a 1 cm optical pathlength, placed in a UVIKON 931 spectrophotometer (Kontron) equipped with a thermostatically-regulated cuvette holder. The increase in turbidity of the solution is monitored at 350 nm.
The products are dissolved at 10 mM in DMSO and added at variable concentrations (0.5 to 10 μm) to the tubulin solution before polymerization. The IC50 is defined as the concentration of the product which inhibits the rate of polymerization by 50%.

T1 sequence (P02550 whole entry): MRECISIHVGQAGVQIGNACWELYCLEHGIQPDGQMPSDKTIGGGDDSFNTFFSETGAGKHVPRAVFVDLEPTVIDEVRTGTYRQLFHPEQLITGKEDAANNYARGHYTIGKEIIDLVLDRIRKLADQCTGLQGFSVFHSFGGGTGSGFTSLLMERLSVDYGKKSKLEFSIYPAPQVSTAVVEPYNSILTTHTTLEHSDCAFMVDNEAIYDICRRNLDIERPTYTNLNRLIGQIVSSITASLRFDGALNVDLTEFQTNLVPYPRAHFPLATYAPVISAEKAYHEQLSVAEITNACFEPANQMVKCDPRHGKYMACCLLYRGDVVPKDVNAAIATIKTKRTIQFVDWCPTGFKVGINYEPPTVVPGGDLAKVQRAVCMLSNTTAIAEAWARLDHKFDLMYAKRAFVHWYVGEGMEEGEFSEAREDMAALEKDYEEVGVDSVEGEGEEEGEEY
T1 sequence (P02554 whole entry): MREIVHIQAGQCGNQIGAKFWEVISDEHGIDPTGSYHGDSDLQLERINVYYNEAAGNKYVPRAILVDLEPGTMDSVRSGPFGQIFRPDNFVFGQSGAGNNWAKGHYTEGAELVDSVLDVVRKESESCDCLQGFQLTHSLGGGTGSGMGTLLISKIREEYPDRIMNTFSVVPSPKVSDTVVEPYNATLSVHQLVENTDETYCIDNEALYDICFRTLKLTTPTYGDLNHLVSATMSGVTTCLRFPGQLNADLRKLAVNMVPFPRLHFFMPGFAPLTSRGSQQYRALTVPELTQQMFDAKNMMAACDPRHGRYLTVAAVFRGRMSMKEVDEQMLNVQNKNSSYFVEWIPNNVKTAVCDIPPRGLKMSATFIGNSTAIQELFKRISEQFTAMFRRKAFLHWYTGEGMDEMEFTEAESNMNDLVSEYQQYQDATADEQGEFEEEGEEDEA

Row | SMILES | IC50 [1] [nM] | IC50 [2] [nM] | melting point [°C]
1 | N#Cc1cccc(N2CCN(C(=O)c3c[nH]cc3-c3ccccc3)CC2)c1 [Example 61, 3-[4-(4-Phenyl-1H-pyrrol-3-ylcarbonyl)piperazin-1-yl]benzonitrile] | 40 | 2320 | 
2 | COc1cc(OC)cc(N2CCN(C(=O)c3ccn(C(C)=O)c3-c3ccccc3)CC2)c1 [Example 63, [4-(3,5-Dimethoxyphenyl)piperazin-1-yl](1-acetyl-2-phenyl-1H-pyrrol-3-yl)methanone] |  | 4000 | 150
3 | NC(=O)c1cccc(N2CCN(C(=O)c3cn(CCO)cc3-c3ccccc3)CC2)c1 [Example 66, 3-[4-(1-Hydroxyethyl-4-phenyl-1H-pyrrol-3-ylcarbonyl)piperazin-1-yl]benzamide] | 2030 | 2430 | 
4 | COc1cc(OC)cc(N2CCN(C(=O)c3[nH]c(S(C)(=O)=O)nc3-c3ccccc3)CC2)c1 [Example 67, [4-(3,5-Dimethoxyphenyl)piperazin-1-yl](2-methylsulfonyl-4-phenyl-1H-imidazol-5-yl)methanone] | 2700 | 1650 | 
5 | CS(=O)(=O)c1nc(-c2ccccc2)c(C(=O)N2CCN(c3cccc(C#N)c3)CC2)[nH]1 [Example 70, 3-[4-(2-Methylsulfonyl-4-phenyl-1H-imidazol-4-ylcarbonyl)piperazin-1-yl]benzonitrile] |  | 3750 | 198
6 | NC(=O)c1cccc(N2CCN(C(=O)c3c(-c4ccccc4)ccn3CC(=O)O)CC2)c1 [Example 73, {2-[4-(3-Carbamoylphenyl)piperazin-1-ylcarbonyl]-3-phenylpyrrol-1-yl}acetic acid] | 2700 | 18400 | 

Stronger by IC50 [2], values ahead:

Row | IC50 [1] [nM] | IC50 [2] [nM] | melting point [°C] | SMILES
7 | 11 | 990 |  | Cc1nc(-c2ccccc2)c(C(=O)N2CCN(c3cccc(C#N)c3)CC2)[nH]1 [Example 60, 3-[4-(2-Methyl-5-phenyl-1H-imidazol-4-ylcarbonyl)piperazin-1-yl]benzonitrile]
8 | 8 | 570 |  | COc1cc(OC)cc(N2CCN(C(=O)c3[nH]c(C(F)(F)F)nc3-c3ccccc3)CC2)c1 [Example 62, [4-(3,5-Dimethoxyphenyl)piperazin-1-yl](2-trifluoromethyl-4-phenyl-1H-imidazol-5-yl)methanone]
9 | 13 | 480 |  | O=C(c1[nH]cnc1-c1ccccc1)N1CCN(c2cccc(CO)c2)CC1 [Example 68, [4-(3-Hydroxymethylphenyl)piperazin-1-yl](4-phenyl-1H-imidazol-5-yl)methanone]
10 | 45 | 710 |  | Cn1cc(C(=O)N2CCN(c3cccc(CO)c3)CC2)c(-c2ccccc2)c1 [Example 69]
11 | 29.5 | 580 |  | N#Cc1cccc(N2CCN(C(=O)c3cn(CO)cc3-c3ccccc3)CC2)c1 [Example 72, 3-[4-(1-Hydroxymethyl-4-phenyl-1H-pyrrol-3-ylcarbonyl)piperazin-1-yl]benzonitrile]
12 | 101 | 970 |  | Cc1nc(-c2ccccc2)c(C(=O)N2CCN(c3cccc(CO)c3)CC2)[nH]1 [Example 76, [4-(3-Hydroxymethylphenyl)piperazin-1-yl](2-methyl-4-phenyl-1H-imidazol-5-yl)methanone]
13 | 244 | 725 |  | O=C(c1[nH]c(S)nc1-c1ccccc1)N1CCN(c2cccc(CO)c2)CC1 [Example 78, [4-(3-Hydroxymethylphenyl)piperazin-1-yl](2-mercapto-4-phenyl-1H-imidazol-5-yl)methanone]
14 | 11.7 | 493 |  | CSc1nc(-c2ccccc2)c(C(=O)N2CCN(c3cccc(CO)c3)CC2)[nH]1 [Example 79, [4-(3-Hydroxymethylphenyl)piperazin-1-yl](2-methylsulfanyl-4-phenyl-1H-imidazol-5-yl)methanone]
15 |  | 294 | 246 | N#Cc1cccc(N2CCN(C(=O)c3sc(N)nc3-c3ccccc3)CC2)c1 [Example 82, 3-[4-(2-Amino-4-phenylthiazol-5-ylcarbonyl)piperazin-1-yl]benzonitrile]
